“And” between values parts separate entries of the source, which are not always exact repeats. Equal entries are not always repeated. Each block holds one compound with its values, some of them ahead of it.
System: 947758-054-R-J2-PDC spheroid growth, percent test/control
Test: Anticancer human tumor 947758-054-R-J2-PDC patient-derived colon adenocarcinoma cell line growth inhibition [CLK]
Details: spheroids with HUVEC and MSC; for viability, T/C: stronger effect = lower value
Method in brief: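 Patient-derived tumor cells grown as complex spheroids with HUVEC endothelial cells and mesenchymal stem cells, treated with drug combinations. Concentrations descend in half-log steps from near clinical Cmax, or from 10 microM if Cmax unknown.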

[1] = curve of first compound, second compound 0.0316 µM
[2] = curve of first compound, second compound 0.1 µM
[3] = curve of first compound, second compound 0.316 µM
[4] = curve of first compound, second compound 1 µM
[5] = curve of first compound, second compound 3.16 µM
[6] = curve of first compound, second compound 10 µM
[7] = second compound 0.0316 µM, first compound 0.0316 µM
[8] = second compound 0.0316 µM, first compound 0.1 µM
[9] = second compound 0.0316 µM, first compound 0.316 µM
[10] = second compound 0.0316 µM, first compound 1 µM
[11] = second compound 0.0316 µM, first compound 3.16 µM
[12] = second compound 0.0316 µM, first compound 10 µM
[13] = second compound 0.1 µM, first compound 0.0316 µM
[14] = second compound 0.1 µM, first compound 0.1 µM
[15] = second compound 0.1 µM, first compound 0.316 µM
[16] = second compound 0.1 µM, first compound 1 µM
[17] = second compound 0.1 µM, first compound 3.16 µM
[18] = second compound 0.1 µM, first compound 10 µM
[19] = second compound 0.316 µM, first compound 0.0316 µM
[20] = second compound 0.316 µM, first compound 0.1 µM
[21] = second compound 0.316 µM, first compound 0.316 µM
[22] = second compound 0.316 µM, first compound 1 µM
[23] = second compound 0.316 µM, first compound 3.16 µM
[24] = second compound 0.316 µM, first compound 10 µM
[25] = second compound 1 µM, first compound 0.0316 µM
[26] = second compound 1 µM, first compound 0.1 µM
[27] = second compound 1 µM, first compound 0.316 µM
[28] = second compound 1 µM, first compound 1 µM
[29] = second compound 1 µM, first compound 3.16 µM
[30] = second compound 1 µM, first compound 10 µM
[31] = second compound 3.16 µM, first compound 0.0316 µM
[32] = second compound 3.16 µM, first compound 0.1 µM
[33] = second compound 3.16 µM, first compound 0.316 µM
[34] = second compound 3.16 µM, first compound 1 µM
[35] = second compound 3.16 µM, first compound 3.16 µM
[36] = second compound 3.16 µM, first compound 10 µM
[37] = second compound 10 µM, first compound 0.0316 µM
[38] = second compound 10 µM, first compound 0.1 µM
[39] = second compound 10 µM, first compound 0.316 µM
[40] = second compound 10 µM, first compound 1 µM
[41] = second compound 10 µM, first compound 3.16 µM
[42] = second compound 10 µM, first compound 10 µM
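Further: spheroids exposed to compounds for one week before readout.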
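Wherever viability, T/C is given: 100% = DMSO vehicle control wells.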

Compound: O=c1[nH]cc(F)c(=O)[nH]1 + CN1CCN(c2cc(C(=O)Nc3cc4cc(-c5cnn(C)c5)ccc4cn3)ccn2)CC1
IC50 [1]: 8260 nM
IC50 [2]: 6150 nM
IC50 [3]: < 31.6 nM
IC50 [4]: < 31.6 nM
IC50 [5]: < 31.6 nM
IC50 [6]: < 31.6 nM
viability, T/C [7]: 124%
viability, T/C [8]: 113%
viability, T/C [9]: 103%
viability, T/C [10]: 143%
viability, T/C [11]: 83.8%
viability, T/C [12]: 43.2%
viability, T/C [13]: 150%
viability, T/C [14]: 167%
viability, T/C [15]: 159%
viability, T/C [16]: 166%
viability, T/C [17]: 69.1%
viability, T/C [18]: 36%
viability, T/C [19]: 4.49%
viability, T/C [20]: 7.16%
viability, T/C [21]: 4.59%
viability, T/C [22]: 5.49%
viability, T/C [23]: 4.38%
viability, T/C [24]: 3.92%
viability, T/C [25]: 0.14%
viability, T/C [26]: 0.31%
viability, T/C [27]: 1.1%
viability, T/C [28]: 0.1%
viability, T/C [29]: 2.13%
viability, T/C [30]: 0.12%
viability, T/C [31]: 0.24%
viability, T/C [32]: 1.5%
viability, T/C [33]: 0.14%
viability, T/C [34]: 0.16%
viability, T/C [35]: 0.18%
viability, T/C [36]: 2.35%
viability, T/C [37]: 0.67%
viability, T/C [38]: 0.21%
viability, T/C [39]: 0.25%
viability, T/C [40]: 0.21%
viability, T/C [41]: 1.51%
viability, T/C [42]: 0.31%

Compound: Nc1ccn(C2OC(CO)C(O)C2(F)F)c(=O)n1 (configuration not stated) + CNC(=O)c1ccc(Nc2nc(OC3CCCC3)c3c(-c4ccc5nc(C)oc5c4)c[nH]c3n2)c(OC)c1
IC50 [1]: < 31.6 nM
IC50 [2]: < 31.6 nM
IC50 [3]: < 31.6 nM
IC50 [4]: < 31.6 nM
IC50 [5]: < 31.6 nM
IC50 [6]: < 31.6 nM
viability, T/C [7]: 21.3%
viability, T/C [8]: 9.39%
viability, T/C [9]: 10.4%
viability, T/C [10]: 12.7%
viability, T/C [11]: 10.1%
viability, T/C [12]: 7.91%
viability, T/C [13]: 25.7%
viability, T/C [14]: 7.76%
viability, T/C [15]: 9.74%
viability, T/C [16]: 9.84%
viability, T/C [17]: 9.52%
viability, T/C [18]: 7.25%
viability, T/C [19]: 25.4%
viability, T/C [20]: 8.69%
viability, T/C [21]: 7.46%
viability, T/C [22]: 11.1%
viability, T/C [23]: 8.56%
viability, T/C [24]: 6.75%
viability, T/C [25]: 29.1%
viability, T/C [26]: 8.29%
viability, T/C [27]: 5.33%
viability, T/C [28]: 7.16%
viability, T/C [29]: 6.13%
viability, T/C [30]: 8.82%
viability, T/C [31]: 19.2%
viability, T/C [32]: 6.89%
viability, T/C [33]: 6.64%
viability, T/C [34]: 7.3%
viability, T/C [35]: 6.33%
viability, T/C [36]: 4.72%
viability, T/C [37]: 18.2%
viability, T/C [38]: 9.83%
viability, T/C [39]: 3.87%
viability, T/C [40]: 5.96%
viability, T/C [41]: 4.8%
viability, T/C [42]: 3.11%

Compound: O=c1[nH]cc(F)c(=O)[nH]1 + CNC(=O)c1ccc(Nc2nc(OC3CCCC3)c3c(-c4ccc5nc(C)oc5c4)c[nH]c3n2)c(OC)c1
IC50 [1]: 969 nM
IC50 [2]: 892 nM
IC50 [3]: 557 nM
IC50 [4]: < 31.6 nM
IC50 [5]: < 31.6 nM
IC50 [6]: < 31.6 nM
viability, T/C [7]: 97.2%
viability, T/C [8]: 85.4%
viability, T/C [9]: 84.2%
viability, T/C [10]: 47.2%
viability, T/C [11]: 38.4%
viability, T/C [12]: 28%
viability, T/C [13]: 81.3%
viability, T/C [14]: 79.1%
viability, T/C [15]: 88%
viability, T/C [16]: 46.3%
viability, T/C [17]: 31%
viability, T/C [18]: 22%
viability, T/C [19]: 79.8%
viability, T/C [20]: 79.4%
viability, T/C [21]: 51.4%
viability, T/C [22]: 44.3%
viability, T/C [23]: 27.7%
viability, T/C [24]: 16.7%
viability, T/C [25]: 47.4%
viability, T/C [26]: 40.3%
viability, T/C [27]: 52.8%
viability, T/C [28]: 31.2%
viability, T/C [29]: 20.6%
viability, T/C [30]: 13.2%
viability, T/C [31]: 42.6%
viability, T/C [32]: 25%
viability, T/C [33]: 38.6%
viability, T/C [34]: 26.1%
viability, T/C [35]: 16.8%
viability, T/C [36]: 11.8%
viability, T/C [37]: 36.2%
viability, T/C [38]: 24.6%
viability, T/C [39]: 35.9%
viability, T/C [40]: 22.1%
viability, T/C [41]: 12.2%
viability, T/C [42]: 13.2%

Compound: CC(Nc1ccc2c(c1)OCCn1cc(N3C(=O)OCC3C(F)F)nc1-2)C(N)=O (configuration not stated)
viability, T/C (compound 0.0316 µM): 106% and 109%
viability, T/C (compound 0.1 µM): 96.5% and 102%
viability, T/C (compound 0.316 µM): 99.4% and 98.8%
viability, T/C (compound 1 µM): 93% and 85.2%
viability, T/C (compound 3.16 µM): 92.2% and 93.3%
viability, T/C (compound 10 µM): 93.6% and 88.5%
IC50 (curve of compound): > 10000 nM

The next lines start with results.

IC50 (curve of compound): < 31.6 nM
Compound: Nc1ccn(C2OC(CO)C(O)C2(F)F)c(=O)n1 (configuration not stated)
viability, T/C (compound 0.0316 µM): 35.4% and 24.8%
viability, T/C (compound 0.1 µM): 9.92% and 9.41%
viability, T/C (compound 0.316 µM): 13.3% and 10.2%
viability, T/C (compound 1 µM): 14.8% and 12.9%
viability, T/C (compound 3.16 µM): 10.8% and 9.65%
viability, T/C (compound 10 µM): 8.94% and 10.9%

IC50 [1]: < 31.6 nM
IC50 [2]: > 10000 nM
IC50 [3]: < 31.6 nM
IC50 [4]: > 10000 nM
IC50 [5]: < 31.6 nM
IC50 [6]: < 31.6 nM
Compound: CC(=O)O[C@H]1C(=O)[C@@]2(C)[C@H]([C@H](OC(=O)c3ccccc3)[C@]3(O)C[C@H](OC(=O)[C@H](O)[C@@H](NC(=O)c4ccccc4)c4ccccc4)C(C)=C1C3(C)C)[C@]1(OC(C)=O)CO[C@@H]1C[C@@H]2O + CNC(=O)c1ccc(Nc2nc(OC3CCCC3)c3c(-c4ccc5nc(C)oc5c4)c[nH]c3n2)c(OC)c1
viability, T/C [7]: 27.7%
viability, T/C [8]: 34.4%
viability, T/C [9]: 31.7%
viability, T/C [10]: 35.2%
viability, T/C [11]: 40.6%
viability, T/C [12]: 47.7%
viability, T/C [13]: 61.2%
viability, T/C [14]: 59%
viability, T/C [15]: 65%
viability, T/C [16]: 79.8%
viability, T/C [17]: 79.1%
viability, T/C [18]: 90.5%
viability, T/C [19]: 47.7%
viability, T/C [20]: 65.1%
viability, T/C [21]: 74.4%
viability, T/C [22]: 85.6%
viability, T/C [23]: 88.3%
viability, T/C [24]: 87.4%
viability, T/C [25]: 41.1%
viability, T/C [26]: 83.5%
viability, T/C [27]: 59.1%
viability, T/C [28]: 61.9%
viability, T/C [29]: 82.8%
viability, T/C [30]: 57.6%
viability, T/C [31]: 36.9%
viability, T/C [32]: 43.8%
viability, T/C [33]: 70.2%
viability, T/C [34]: 70.8%
viability, T/C [35]: 67.9%
viability, T/C [36]: 56.8%
viability, T/C [37]: 35.2%
viability, T/C [38]: 42.1%
viability, T/C [39]: 56.7%
viability, T/C [40]: 53.9%
viability, T/C [41]: 56.8%
viability, T/C [42]: 61.3%

— PubChem BioAssay AID2060605 (Molecular Pharmacology Branch, DTP, NCI, 2025)
